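Five compound concentrations were applied to cells in 96-well plates for 48 hours; endpoints were derived by simple linear interpolation of the resulting dose-response curve. At the GI50, growth is halved. Definition used: TGI = concentration required for complete inhibition of growth.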 A value given as a limit tells only on which side of the number the result lay.

Some test systems named below: ACHN renal; HS 578T breast; KM12 colon; MALME-3M melanoma; MCF7 breast; PC-3 prostate; SF-539 CNS; SK-MEL-2 melanoma; SR leukemia; UO-31 renal.
What all share (assay): inhibition of tumour cell growth, NCI panel, 48 h

Regarding `COc1cc(C)c(Cl)cc1C1=NN(c2ccc(S(N)(=O)=O)cc2)C(/C=C/c2ccccc2)C1` (stereo not given), the GI50 with ACHN renal is 3.2 µM; in the experiment with HS 578T breast, 2.89 µM; in the experiment on KM12 colon, 3.4 µM; in the experiment with MALME-3M melanoma it was 2.68 µM; in the experiment with MCF7 breast it was 2.55 µM; in the experiment on PC-3 prostate it was 3.11 µM. In addition, the GI50 is 4.26 µM with SF-539 CNS, 3.24 µM with SK-MEL-2 melanoma, 3.06 µM with SR leukemia and 2.54 µM in the experiment with UO-31 renal. For the same compound, the TGI with ACHN renal was 13.3 µM; in the experiment with HS 578T breast, 9.83 µM; with KM12 colon, 14.8 µM; in the experiment with MALME-3M melanoma, 9.98 µM; with MCF7 breast, 9.13 µM; with PC-3 prostate it was 13.8 µM. For the same compound, the TGI stood at 17 µM in the experiment on SF-539 CNS, 8.75 µM in the experiment with SK-MEL-2 melanoma, 8.91 µM in the experiment with SR leukemia and 12.6 µM in the experiment with UO-31 renal.

For the compound `O=C(CN1CCN(CCCOc2c(-c3ccccc3)oc3ccccc3c2=O)CC1)Nc1ccc(Cl)cc1C(=O)c1ccccc1Cl`, the GI50 in the experiment with ACHN renal was 14.8 µM; in the experiment with HS 578T breast, 8.45 µM; in the experiment with KM12 colon, 5.73 µM; in the experiment on MALME-3M melanoma, 4 µM; in the experiment on MCF7 breast, 3.5 µM; in the experiment with PC-3 prostate, 3.18 µM. The GI50 in the experiment with SF-539 CNS is 6.68 µM; with SK-MEL-2 melanoma, 12.5 µM; in the experiment with SR leukemia it was 3.14 µM; in the experiment on UO-31 renal it was 9.28 µM. Moreover, the TGI was over 100 µM in the experiment with ACHN renal; 60.8 µM with HS 578T breast; 29.9 µM in the experiment on KM12 colon; 8.91 µM in the experiment with MALME-3M melanoma; 26.5 µM in the experiment on MCF7 breast; 21.4 µM with PC-3 prostate. Further, the TGI with SF-539 CNS stood at 22.2 µM; in the experiment on SK-MEL-2 melanoma it was 31 µM; in the experiment on SR leukemia, 8.17 µM; with UO-31 renal, 29.4 µM.

As for `Nc1c(Br)cc(Br)c2c1[nH]c(=O)c1ccccc12`, the GI50 in the experiment with ACHN renal was 3.18 µM; in the experiment with HS 578T breast, 3.07 µM; in the experiment with KM12 colon it was over 100 µM; with MALME-3M melanoma, 3.43 µM; in the experiment with MCF7 breast, 0.577 µM; with PC-3 prostate, 14.4 µM. The GI50 in the experiment on SF-539 CNS was 42 µM; with SK-MEL-2 melanoma, 20.7 µM; in the experiment with SR leukemia it was 2.39 µM; with UO-31 renal it was 2.17 µM. Also, the TGI in the experiment on ACHN renal was 10.4 µM; in the experiment on HS 578T breast, 30 µM; in the experiment on KM12 colon it was over 100 µM; in the experiment with MALME-3M melanoma, 10.1 µM; with MCF7 breast, over 100 µM; in the experiment on PC-3 prostate, over 100 µM. Further, the TGI was over 100 µM in the experiment with SF-539 CNS, 60.3 µM in the experiment on SK-MEL-2 melanoma, 5.91 µM in the experiment on SR leukemia and 5.9 µM in the experiment on UO-31 renal.

For the compound `CCC(CO)Nc1nc(NCc2ccccc2O)c2ncn(C(C)C)c2n1` (stereo not given), the GI50 in the experiment on ACHN renal is 1.96 µM; with HS 578T breast, 3.1 µM; in the experiment with KM12 colon it was 3.92 µM; in the experiment on MALME-3M melanoma, 40.1 µM; in the experiment on MCF7 breast, 2.88 µM; in the experiment on PC-3 prostate it was 5.67 µM. For the same compound, the GI50 with SF-539 CNS was 3.72 µM; in the experiment on SK-MEL-2 melanoma it was 1.79 µM; in the experiment with SR leukemia, 1.35 µM; in the experiment with UO-31 renal it was 0.0777 µM. Besides, the TGI is over 100 µM in the experiment with ACHN renal; 16.7 µM with HS 578T breast; over 100 µM with KM12 colon; over 100 µM with MALME-3M melanoma; 8.73 µM with MCF7 breast; 30.8 µM in the experiment with PC-3 prostate. Moreover, the TGI in the experiment on SF-539 CNS was found to be 28.4 µM; in the experiment on SK-MEL-2 melanoma, 5.83 µM; in the experiment on SR leukemia, 4.1 µM; with UO-31 renal it was 4.27 µM.

As to `CCCc1cc2c(=O)c(C(=O)OC)c[nH]c2cc1N(CC)CC`, the GI50 with ACHN renal was 17.6 µM; in the experiment on HS 578T breast, 19.6 µM; in the experiment with KM12 colon, 45.5 µM; in the experiment with MALME-3M melanoma, 64.8 µM; in the experiment on MCF7 breast, 73.6 µM; with PC-3 prostate, 23.3 µM. For the same compound, the GI50 was 34 µM in the experiment on SF-539 CNS, 36.1 µM in the experiment with SK-MEL-2 melanoma, 39.3 µM with SR leukemia and 28.5 µM with UO-31 renal. Further, the TGI with ACHN renal was 60.9 µM; with HS 578T breast, 48.1 µM; in the experiment with KM12 colon it was over 100 µM; in the experiment on MALME-3M melanoma, over 100 µM; in the experiment on MCF7 breast, over 100 µM; in the experiment on PC-3 prostate, over 100 µM. Further, the TGI was over 100 µM in the experiment with SF-539 CNS, 97.8 µM in the experiment with SK-MEL-2 melanoma, over 100 µM in the experiment on SR leukemia and over 100 µM with UO-31 renal.

In the case of `COc1cc(-c2nn(-c3cccc(NC(=O)Nc4cc(C(F)(F)F)cc(C(F)(F)F)c4)c3)cc2-c2ccncc2)ccc1Cl`, the GI50 is 0.309 µM in the experiment on ACHN renal; 1.16 µM in the experiment with HS 578T breast; 0.412 µM in the experiment with KM12 colon; 0.677 µM in the experiment with MALME-3M melanoma; 0.563 µM with MCF7 breast; 0.176 µM in the experiment with PC-3 prostate. The GI50 in the experiment on SF-539 CNS is 0.836 µM; with SK-MEL-2 melanoma it was 1.01 µM; in the experiment with SR leukemia, 0.8 µM; in the experiment on UO-31 renal, 0.612 µM. Besides, the TGI in the experiment on ACHN renal is 16.9 µM; in the experiment on HS 578T breast it was 8.81 µM; in the experiment with KM12 colon, 2.09 µM; with MALME-3M melanoma, 2 µM; in the experiment with MCF7 breast, 8.59 µM; in the experiment with PC-3 prostate, 1.18 µM. The TGI with SF-539 CNS came out at 1.75 µM; with SK-MEL-2 melanoma, 2.04 µM; in the experiment on SR leukemia, 2.99 µM; in the experiment on UO-31 renal, 1.52 µM.

Source of the values: PubChem BioAssay (NCI).
